Test systems include A549 NSCLC; COLO 205 colon; HOP-92 NSCLC; HT29 colon; KM12 colon; MOLT-4 leukemia; NCI/ADR-RES ovarian; OVCAR-5 ovarian; U251 CNS; UACC-257 melanoma.
Holding throughout (assay): NCI tumour cell line growth inhibition, 48 h

Structures are written as SMILES.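 All cell lines were grown in 96-well plates and treated with compound for 48 hours. GI50 marks 50% less growth. TGI: concentration producing complete growth inhibition.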

Turning to `COc1ccc(C2CC(=O)c3c(OC)cc(OC)cc3O2)cc1` (stereo not given), the GI50 was greater than 100 µM with A549 NSCLC; greater than 100 µM in the assay on COLO 205 colon; 18400 nM in the assay with HOP-92 NSCLC; greater than 100 µM in the assay with HT29 colon; greater than 100 µM in the assay on KM12 colon; greater than 100 µM in the assay with MOLT-4 leukemia. Moreover, the GI50 with NCI/ADR-RES ovarian, in the assay on OVCAR-5 ovarian, with U251 CNS and with UACC-257 melanoma was greater than 100 µM each time. Besides, the TGI in the assay on A549 NSCLC, in the assay with COLO 205 colon, in the assay with HOP-92 NSCLC, with HT29 colon, in the assay on KM12 colon and in the assay with MOLT-4 leukemia was greater than 100 µM each time. For the same molecule, the TGI in the assay on NCI/ADR-RES ovarian, in the assay with OVCAR-5 ovarian, with U251 CNS and in the assay with UACC-257 melanoma was greater than 100 µM throughout.
Consider `O=C(O)C1C(C(=O)O)C(C(=O)O)C1C(=O)O` (stereo not given), for which the TGI in the assay on A549 NSCLC, in the assay on COLO 205 colon, with HOP-92 NSCLC, in the assay on HT29 colon, in the assay with KM12 colon and with MOLT-4 leukemia was greater than 100 µM throughout. In addition, the TGI with NCI/ADR-RES ovarian, with OVCAR-5 ovarian, in the assay with U251 CNS and in the assay with UACC-257 melanoma was greater than 100 µM throughout.
On to `COc1ccc(-n2c(SCc3cc(OC)c(OC)c(OC)c3)nc3ccc(C)cc3c2=O)cc1`, for which the GI50 in the assay with A549 NSCLC was 4.75 µM; with COLO 205 colon it was 5.24 µM; in the assay on HOP-92 NSCLC, 1750 nM; in the assay with HT29 colon, 4.3 µM; with KM12 colon, 4.57 µM; in the assay on MOLT-4 leukemia, 5.19 µM. In addition, the GI50 in the assay with NCI/ADR-RES ovarian is 3.71 µM; in the assay on OVCAR-5 ovarian, greater than 100 µM; with U251 CNS it was 7.87 µM; in the assay on UACC-257 melanoma, 64.4 µM. Moreover, the TGI in the assay on A549 NSCLC, with COLO 205 colon, with HOP-92 NSCLC, in the assay with HT29 colon, in the assay with KM12 colon and with MOLT-4 leukemia was greater than 100 µM each time. Further, the TGI in the assay with NCI/ADR-RES ovarian, in the assay with OVCAR-5 ovarian, with U251 CNS and with UACC-257 melanoma was greater than 100 µM throughout.
Take `C[C@]12CC[C@@H]3c4ccc(O)cc4C[C@@H](CCCCCCCCCS(=O)CCCC(F)(F)C(F)(F)F)[C@H]3[C@@H]1CC[C@@H]2O` (stereo not given in full): the GI50 in the assay with A549 NSCLC was greater than 69.9 µM; in the assay with COLO 205 colon it was greater than 100 µM; with HOP-92 NSCLC, greater than 100000 nM; in the assay with HT29 colon, greater than 100 µM; in the assay on KM12 colon it was greater than 100 µM; in the assay with MOLT-4 leukemia it was greater than 100 µM. Besides, the GI50 in the assay on NCI/ADR-RES ovarian, in the assay with OVCAR-5 ovarian, in the assay on U251 CNS and in the assay on UACC-257 melanoma was greater than 100 µM in each case. For the same molecule, the TGI in the assay on A549 NSCLC, in the assay with COLO 205 colon, in the assay with HOP-92 NSCLC, with HT29 colon, in the assay with KM12 colon and in the assay with MOLT-4 leukemia was greater than 100 µM throughout. The TGI in the assay with NCI/ADR-RES ovarian, in the assay with OVCAR-5 ovarian, with U251 CNS and with UACC-257 melanoma was greater than 100 µM each time.
Take `COc1ccc2cc(C(=O)/C=C/c3cccc(OC)c3OC)ccc2c1`: the GI50 in the assay on A549 NSCLC was 7.11 µM; with COLO 205 colon, 20.4 µM; in the assay on HOP-92 NSCLC, 36200 nM; with HT29 colon, 4.07 µM; with KM12 colon it was 13 µM; in the assay on MOLT-4 leukemia it was 3.12 µM. In addition, the GI50 in the assay on NCI/ADR-RES ovarian is 6.57 µM; in the assay on OVCAR-5 ovarian, 20.2 µM; in the assay with U251 CNS, 7.9 µM; with UACC-257 melanoma, 15 µM. The TGI is 24.8 µM with A549 NSCLC; 78.5 µM with COLO 205 colon; greater than 100 µM with HOP-92 NSCLC; 17.6 µM with HT29 colon; 33.1 µM with KM12 colon; 15.6 µM in the assay on MOLT-4 leukemia. Moreover, the TGI was 34.3 µM with NCI/ADR-RES ovarian, 40.7 µM in the assay on OVCAR-5 ovarian, 22 µM with U251 CNS and 29.8 µM in the assay on UACC-257 melanoma.
For `COc1cccc(NCc2nnc(Nc3ccc(Cl)cc3)c3ccccc23)c1`, the GI50 is 1.93 µM in the assay with A549 NSCLC; 0.492 µM in the assay on COLO 205 colon; 329 nM in the assay with HOP-92 NSCLC; 0.34 µM with HT29 colon; 0.131 µM with KM12 colon; 1.1 µM in the assay with MOLT-4 leukemia. Further, the GI50 in the assay with NCI/ADR-RES ovarian is 2.55 µM; in the assay on OVCAR-5 ovarian it was 3.38 µM; in the assay with U251 CNS, 2.78 µM; in the assay with UACC-257 melanoma it was 2.04 µM. Besides, the TGI in the assay with A549 NSCLC turned out to be 9.42 µM; with COLO 205 colon it was 4.01 µM; in the assay with HOP-92 NSCLC, 2.91 µM; with HT29 colon, 3.62 µM; in the assay with KM12 colon, 6.52 µM; in the assay with MOLT-4 leukemia it was 7.57 µM. The TGI in the assay on NCI/ADR-RES ovarian was 25 µM; with OVCAR-5 ovarian, 11.8 µM; in the assay with U251 CNS, 6.54 µM; in the assay with UACC-257 melanoma, 5.28 µM.
For `CC(C)(C)C1=CC(=CC=C2C=CN(CCCCCCCCCCCO)C=C2)C=C(C(C)(C)C)C1=O`, the TGI in the assay with A549 NSCLC is 3.58 µM; in the assay with COLO 205 colon, 2.82 µM; with HOP-92 NSCLC, 6.16 µM; in the assay with HT29 colon it was greater than 25.7 µM; in the assay on KM12 colon, 4.4 µM; with MOLT-4 leukemia, 4.74 µM. The TGI was determined as 11.7 µM with NCI/ADR-RES ovarian, 6.52 µM in the assay on OVCAR-5 ovarian, 2.68 µM in the assay with U251 CNS and 4.4 µM in the assay with UACC-257 melanoma.
With `Cc1[nH]c(N=Nc2ccccc2)nc1N=Nc1ccccc1`, the GI50 in the assay with A549 NSCLC is 2.86 µM; in the assay with COLO 205 colon, 2.96 µM; with HOP-92 NSCLC it was 2340 nM; with HT29 colon, 4.57 µM; with KM12 colon it was 3.98 µM; in the assay on MOLT-4 leukemia it was 2.32 µM. Further, the GI50 in the assay on NCI/ADR-RES ovarian was 2.78 µM; with OVCAR-5 ovarian it was 6.62 µM; in the assay with U251 CNS, 2.83 µM; with UACC-257 melanoma, 2.26 µM. Further, the TGI was 12 µM with A549 NSCLC; 13.1 µM in the assay on COLO 205 colon; 20.3 µM in the assay with HOP-92 NSCLC; 20.8 µM in the assay on HT29 colon; greater than 93.2 µM in the assay with KM12 colon; greater than 41.7 µM in the assay with MOLT-4 leukemia. For the same molecule, the TGI was 27.3 µM in the assay with NCI/ADR-RES ovarian, greater than 82.2 µM in the assay on OVCAR-5 ovarian, greater than 37.5 µM in the assay with U251 CNS and 5.89 µM with UACC-257 melanoma.

(Values after PubChem BioAssay (NCI).)
